Assay results: ChEMBL document CHEMBL4765480 (J Med Chem, 2021)
In brackets after ≈: the same amount, converted by molar mass.

Legend:
[1] = Aqueous solubility of compound at pH 6.5; format: physicochemical; details: aqueous solution
[2] = Stability in mouse liver microsomes assessed as parent compound remaining after 10 mins; format: ADME, Microsome; details: read-out: Stabilty
[3] = Stability in human liver microsomes assessed as parent compound remaining after 10 mins; format: ADME, Microsome; details: read-out: Stabilty
[4] = Stability in rat liver microsomes assessed as parent compound remaining after 10 mins; format: ADME, Microsome; details: read-out: Stabilty
[5] = Oral bioavailability in cynomolgus monkey at 7 mg/kg; format: ADME, organism-based, Macaca fascicularis; details: in vivo
[6] = Clearance in rat at 10 mg/kg, po; format: ADME, organism-based; details: in vivo
[7] = Oral bioavailability in rat at 10 mg/kg; format: ADME, organism-based; details: in vivo
[8] = Half life in rat liver microsomes; format: ADME, Microsome
[9] = Volume of distribution at steady state in cynomolgus monkey at 7 mg/kg, po; format: ADME, organism-based, Macaca fascicularis; details: in vivo
[10] = Cmax in mouse at 10 mg/kg, po; format: ADME, organism-based; parameters: route oral, dose 10 mg/kg; details: in vivo
[11] = Half life in mouse liver microsomes; format: ADME, Microsome
[12] = Volume of distribution at steady state in rat at 10 mg/kg, po; format: ADME, organism-based; details: in vivo
[13] = Oral bioavailability in mouse at 10 mg/kg; format: ADME, organism-based; details: in vivo
[14] = Cmax in cynomolgus monkey at 7 mg/kg, po; format: ADME, organism-based, Macaca fascicularis; parameters: route oral, dose 7 mg/kg; details: in vivo
[15] = Half life in dog liver microsomes; format: ADME, Canis lupus familiaris, Microsome
[16] = AUC (0 to 24 hrs) in rat at 10 mg/kg, po; format: ADME, organism-based; parameters: time < 24 hr, route oral, dose 10 mg/kg; details: in vivo
[17] = Oral bioavailability in dog at 10 mg/kg; format: ADME, organism-based, Canis lupus familiaris; details: in vivo
[18] = Cmax in dog at 10 mg/kg, po; format: ADME, organism-based, Canis lupus familiaris; parameters: route oral, dose 10 mg/kg; details: in vivo
[19] = AUC (0 to 24 hrs) in cynomolgus monkey at 7 mg/kg, po; format: ADME, organism-based, Macaca fascicularis; parameters: time < 24 hr, route oral, dose 7 mg/kg; details: in vivo
[20] = Clearance in cynomolgus monkey at 7 mg/kg, po; format: ADME, organism-based, Macaca fascicularis; details: in vivo
[21] = Cmax in rat at 10 mg/kg, po; format: ADME, organism-based; parameters: route oral, dose 10 mg/kg; details: in vivo
[22] = Volume of distribution at steady state in mouse at 10 mg/kg, po; format: ADME, organism-based; details: in vivo
[23] = Clearance in dog at 10 mg/kg, po; format: ADME, organism-based, Canis lupus familiaris; details: in vivo
[24] = AUC (0 to 24 hrs) in mouse at 10 mg/kg, po; format: ADME, organism-based; parameters: time < 24 hr, route oral, dose 10 mg/kg; details: in vivo
[25] = Half life in human liver microsomes; format: ADME, Microsome
[26] = Half life in monkey liver microsomes; format: ADME, Macaca mulatta, Microsome; details: rhesus monkey
[27] = Clearance in mouse at 10 mg/kg, po; format: ADME, organism-based; details: in vivo
[28] = Volume of distribution at steady state in dog at 10 mg/kg, po; format: ADME, organism-based, Canis lupus familiaris; details: in vivo
[29] = AUC (0 to 24 hrs) in dog at 10 mg/kg, po; format: ADME, organism-based, Canis lupus familiaris; parameters: time < 24 hr, route oral, dose 10 mg/kg; details: in vivo

Structure (SMILES) | remaining at 10 min [2] [%] | remaining at 10 min [3] [%] | remaining at 10 min [4] [%] | Cmax [10] [µM] | bioavailability [13] [%] | Vdss [22] [L/kg] | AUC(0-t) at 24 h [24] [µM·h] | CL/F [27] [mL/min/kg] | other results
[2H]C([2H])([2H])NC(=O)c1nnc(NC(=O)C2CC2)cc1Nc1cccc(-c2ncc(C(C)(C)O)cn2)c1OC |  |  |  |  |  |  |  |  | solubility [1]: 14 µg/mL (≈ 29.1 µM)
[2H]C([2H])([2H])NC(=O)c1nnc(NC(=O)C2CC2)cc1Nc1cccc(-c2ccccn2)c1OC | 42 | 79 | 34 |  |  |  |  |  | 
[2H]C([2H])([2H])NC(=O)c1nnc(NC(=O)C2CC2)cc1Nc1cccc(-c2cnccn2)c1OC | 1 | 58 | 1 |  |  |  |  |  | 
[2H]C([2H])([2H])NC(=O)c1cnc(NC(=O)C2CC2)cc1Nc1cccc(-c2ncc(F)cn2)c1OC [BMS-986202] |  |  |  | 13 | 62 | 1.1 | 65 | 3 | bioavailability [5]: 100%; CL/F [6]: 3.6 mL/min/kg; bioavailability [7]: 72%; half-life [8]: > 2 h; Vdss [9]: 7 L/kg; half-life [11]: > 2 h; Vdss [12]: 1.1 L/kg; Cmax [14]: 11 µM; half-life [15]: 1.48 h; AUC(0-t) at 24 h [16]: 77 µM·h; bioavailability [17]: 100%; Cmax [18]: 14 µM; AUC(0-t) at 24 h [19]: 130 µM·h; CL/F [20]: 2.3 mL/min/kg; Cmax [21]: 13 µM; CL/F [23]: 1.8 mL/min/kg; half-life [25]: > 2 h; half-life [26]: > 2 h; Vdss [28]: 1.5 L/kg; AUC(0-t) at 24 h [29]: 126 µM·h
[2H]C([2H])([2H])NC(=O)c1nnc(NC(=O)C2CC2)cc1Nc1cccc(-c2cnc(C(=O)N(C)C)cn2)c1OC |  |  |  | 7.8 | 43 | 1.5 | 19 | 7.6 | 
[2H]C([2H])([2H])NC(=O)c1cnc(NC(=O)C2CC2)cc1Nc1cccc(-c2ncccn2)c1OC |  |  |  |  |  |  |  |  | solubility [1]: 32 µg/mL (≈ 75.9 µM)
[2H]C([2H])([2H])NC(=O)c1nnc(NC(=O)C2CC2)cc1Nc1cccc(-c2cnc(C(C)(C)O)cn2)c1OC | 99 | 95 | 90 | 6.1 | 41 | 3.4 | 26 | 5.3 | 
[2H]C([2H])([2H])NC(=O)c1nnc(NC(=O)C2CC2)cc1Nc1cccc(-c2ccncn2)c1OC | 3 | 48 | 3 |  |  |  |  |  | 
[2H]C([2H])([2H])NC(=O)c1nnc(NC(=O)C2CC2)cc1Nc1cccc(-c2ncn(C)n2)c1OC [DEUCRAVACITINIB] | 89 | 98 | 100 |  |  |  |  |  | 
[2H]C([2H])([2H])NC(=O)c1nnc(NC(=O)C2CC2)cc1Nc1cccc(-c2cccnn2)c1OC | 0 | 60 | 8 |  |  |  |  |  | 
[2H]C([2H])([2H])NC(=O)c1nnc(NC(=O)C2CC2)cc1Nc1cccc(-c2ncccn2)c1OC | 78 | 100 | 77 | 5.4 | 31 | 2.3 | 15 | 7.9 | solubility [1]: < 1 µg/mL
